Source: patent US12162872B2, “Cycloalkylurea derivative” (Sumitomo Pharma Co., Ltd., priority 2019, dated 2024)

Biological target: T1, Human orexin receptor type 2 (Homo sapiens, UniProt O43614)
T1 construct: expressed in transfected cells; host or cells: CHO cells (transient expression)
T1 sequence (O43614 1-444): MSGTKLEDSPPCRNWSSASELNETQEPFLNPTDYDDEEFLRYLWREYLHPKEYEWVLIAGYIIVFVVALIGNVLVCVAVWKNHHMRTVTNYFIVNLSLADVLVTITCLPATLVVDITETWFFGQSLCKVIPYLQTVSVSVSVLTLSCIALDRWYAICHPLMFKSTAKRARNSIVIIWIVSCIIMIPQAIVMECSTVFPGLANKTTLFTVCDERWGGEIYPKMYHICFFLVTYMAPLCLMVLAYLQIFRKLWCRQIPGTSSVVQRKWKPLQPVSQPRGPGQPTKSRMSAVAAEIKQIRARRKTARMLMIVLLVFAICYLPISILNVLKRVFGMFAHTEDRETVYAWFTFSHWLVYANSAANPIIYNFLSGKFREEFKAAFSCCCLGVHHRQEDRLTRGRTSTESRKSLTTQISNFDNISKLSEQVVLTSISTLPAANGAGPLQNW
Assay: Test 1: Evaluation of agonist activity for orexin receptor type 2 (aequorin luminescence, intracellular calcium mobilization in CHO cells)
Assay type: cell-based
Conditions: relative percentage of luminescence for the luminescence (100%) of Orexin A (100 pM); CHO cells transiently expressing human orexin receptor type 2 and apoaequorin; Orexin A Lot. 641114
Experimental: Test 1: Evaluation of Agonist Activity for Orexin Receptor Type 2
Human orexin receptor type 2 and apoaequorin were transiently expressed in CHO cells, and the agonist activity was evaluated based on intracellular calcium mobilization with ligand stimulation. The CHO cells transiently-expressed human orexin receptor type 2 and apoaequorin were seeded on a 384-well plate by 2,000 cells/well, and then incubated for 16-22 hours. After the plate was returned to room temperature, Coelenterazine hcp (final concentration: 1 μM) was added to the plate, and the plate was allowed to stand at room temperature for 2 hours. And then, Orexin A (PEPTIDE INSTITUTE, INC., Lot. 641114) or each test compound was added to the plate, and the luminescence of the cells was measured with FDSS7000 (Hamamatsu Photonics K.K.), wherein Orexin A and each test compound were dissolved in DMSO (final concentration: 0.1%), and diluted with a buffer (Hanks, 20 mM HEPES, 0.1% BSA). The agonist activity of each test compound for orexin receptor type 2 was calculated as relative percentage of luminescence for the luminescence (100%) of Orexin A (100 pM).

Compound | agonist activity (%)
CC(C)N1CCN([C@H]2CCCC(F)(F)[C@@H]2NC(=O)N2CCC(C)(c3nsc(C4CC4)n3)CC2)CC1 (racemic) [Example 31, rac-4-(5-cyclopropyl-1,2,4-thiadiazol-3-yl)-N-{(1R,6S)-2,2-difluoro-6-[4-(propan-2-yl)piperazin-1-yl]cyclohexyl}-4-methylpiperidine-1-carboxamide] | 168%
CC(C)N1CCN([C@H]2CCCC(F)(F)[C@@H]2NC(=O)N2CCC(c3ccccn3)CC2)CC1 (racemic) [Example 32, rac-N-{(1R,6S)-2,2-difluoro-6-[4-(propan-2-yl)piperazin-1-yl]cyclohexyl}-4-(pyridin-2-yl)piperidine-1-carboxamide] | 176%
CC(C)N1CCN([C@H]2CCCC(F)(F)[C@@H]2NC(=O)N2CCC3(CCCC3)CC2)CC1 (racemic) [Example 33, rac-N-{(1R,6S)-2,2-difluoro-6-[4-(propan-2-yl)piperazin-1-yl]cyclohexyl}-8-azaspiro[4.5]decane-8-carboxamide] | 123%
CC(C)N1CCN([C@H]2CCCC(F)(F)[C@@H]2NC(=O)N2CCC(C)(c3nnc(C4CC4)s3)CC2)CC1 (racemic) [Example 34, rac-4-(5-cyclopropyl-1,3,4-thiadiazol-2-yl)-N-{(1R,6S)-2,2-difluoro-6-[4-(propan-2-yl)piperazin-1-yl]cyclohexyl}-4-methylpiperidine-1-carboxamide] | 183%
CC(C)N1CCN([C@H]2CCCC(F)(F)[C@@H]2NC(=O)N2CCC(C3CCCCC3)CC2)CC1 (racemic) [Example 35, rac-4-cyclohexyl-N-{(1R,6S)-2,2-difluoro-6-[4-(propan-2-yl)piperazin-1-yl]cyclohexyl}piperidine-1-carboxamide] | 165%
CC(C)N1CCN([C@H]2CCCC(F)(F)[C@@H]2NC(=O)N2CCC(c3ncccn3)CC2)CC1 (racemic) [Example 36, rac-N-{(1R,6S)-2,2-difluoro-6-[4-(propan-2-yl)piperazin-1-yl]cyclohexyl}-4-(pyrimidin-2-yl)piperidine-1-carboxamide] | 114%
CC(C)N1CCN([C@H]2CCCC(F)(F)[C@@H]2NC(=O)N2CCC(O)(c3ccccn3)CC2)CC1 (racemic) [Example 37, rac-N-{(1R,6S)-2,2-difluoro-6-[4-(propan-2-yl)piperazin-1-yl]cyclohexyl}-4-hydroxy-4-(pyridin-2-yl)piperidine-1-carboxamide] | 45%
CC(C)N1CCN([C@H]2CCCC(F)(F)[C@@H]2NC(=O)N2CCC(c3ccccc3)CC2)CC1 (racemic) [Example 38, rac-N-{(1R,6S)-2,2-difluoro-6-[4-(propan-2-yl)piperazin-1-yl]cyclohexyl}-4-phenylpiperidine-1-carboxamide] | 142%
CC(C)N1CCN([C@H]2CCCC(F)(F)[C@@H]2NC(=O)N2CCC(C)(c3ccccc3)CC2)CC1 (racemic) [Example 39, rac-N-{(1R,6S)-2,2-difluoro-6-[4-(propan-2-yl)piperazin-1-yl]cyclohexyl}-4-methyl-4-phenylpiperidine-1-carboxamide] | 157%
CC(C)N1CCN([C@H]2CCCC(F)(F)[C@@H]2NC(=O)N2CCC(O)(c3ccc(Cl)cc3)CC2)CC1 (racemic) [Example 41, rac-4-(4-chlorophenyl)-N-{(1R,6S)-2,2-difluoro-6-[4-(propan-2-yl)piperazin-1-yl]cyclohexyl}-4-hydroxypiperidine-1-carboxamide] | 23%
CC(C)N1CCN([C@H]2CCCC(F)(F)[C@@H]2NC(=O)N2CCC(C)(Oc3ccccn3)CC2)CC1 (racemic) [Example 42, rac-N-{(1R,6S)-2,2-difluoro-6-[4-(propan-2-yl)piperazin-1-yl]cyclohexyl}-4-methyl-4-[(pyridin-2-yl)oxy]piperidine-1-carboxamide] | 141%
COc1nc(C2(C)CCN(C(=O)N[C@@H]3[C@@H](N4CCN(C(C)C)CC4)CCCC3(F)F)CC2)ns1 (racemic) [Example 45, rac-N-{(1R,6S)-2,2-difluoro-6-[4-(propan-2-yl)piperazin-1-yl]cyclohexyl}-4-(5-methoxy-1,2,4-thiadiazol-3-yl)-4-methylpiperidine-1-carboxamide] | 150%
CC(C)N1CCN([C@H]2CCCC(F)(F)[C@@H]2NC(=O)N2CCC(F)(c3ccccn3)CC2)CC1 (racemic) [Example 46, rac-N-{(1R,6S)-2,2-difluoro-6-[4-(propan-2-yl)piperazin-1-yl]cyclohexyl}-4-fluoro-4-(pyridin-2-yl)piperidine-1-carboxamide] | 136%
CC(C)N1CCN([C@H]2CCCC(F)(F)[C@@H]2NC(=O)N2CCC(C)(c3csc(C4CC4)n3)CC2)CC1 (racemic) [Example 47, rac-4-(2-cyclopropyl-1,3-thiazol-4-yl)-N-{(1R,6S)-2,2-difluoro-6-[4-(propan-2-yl)piperazin-1-yl]cyclohexyl}-4-methylpiperidine-1-carboxamide] | 163%
CC(C)N1CCN([C@H]2CCCC(F)(F)[C@@H]2NC(=O)N2CCC(C)(c3ncc(C4CC4)s3)CC2)CC1 (racemic) [Example 48, rac-4-(5-cyclopropyl-1,3-thiazol-2-yl)-N-{(1R,6S)-2,2-difluoro-6-[4-(propan-2-yl)piperazin-1-yl]cyclohexyl}-4-methylpiperidine-1-carboxamide] | 156%
Cc1ccc(C2CCN(C(=O)N[C@@H]3[C@@H](N4CCN(C(C)C)CC4)CCCC3(F)F)CC2)nc1 (racemic) [Example 50, rac-N-{(1R,6S)-2,2-difluoro-6-[4-(propan-2-yl)piperazin-1-yl]cyclohexyl}-4-(5-methylpyridin-2-yl)piperidine-1-carboxamide] | 154%
Cc1cnc(C2CCN(C(=O)N[C@@H]3[C@@H](N4CCN(C(C)C)CC4)CCCC3(F)F)CC2)c(F)c1 (racemic) [Example 51, rac-N-{(1R,6S)-2,2-difluoro-6-[4-(propan-2-yl)piperazin-1-yl]cyclohexyl}-4-(3-fluoro-5-methylpyridin-2-yl)piperidine-1-carboxamide] | 149%
CC(C)N1CCN([C@H]2CCCC(F)(F)[C@@H]2NC(=O)N2CCC(c3ccc(F)cn3)CC2)CC1 (racemic) [Example 52, rac-N-{(1R,6S)-2,2-difluoro-6-[4-(propan-2-yl)piperazin-1-yl]cyclohexyl}-4-(5-fluoropyridin-2-yl)piperidine-1-carboxamide] | 113%
COc1ccc(C2CCN(C(=O)N[C@@H]3[C@@H](N4CCN(C(C)C)CC4)CCCC3(F)F)CC2)nc1 (racemic) [Example 53, rac-N-{(1R,6S)-2,2-difluoro-6-[4-(propan-2-yl)piperazin-1-yl]cyclohexyl}-4-(5-methoxypyridin-2-yl)piperidine-1-carboxamide] | 143%
Cc1cnc(C2CCN(C(=O)N[C@@H]3[C@@H](N4CCN(C(C)C)CC4)CCCC3(F)F)CC2)nc1 (racemic) [Example 54, rac-N-{(1R,6S)-2,2-difluoro-6-[4-(propan-2-yl)piperazin-1-yl]cyclohexyl}-4-(5-methylpyrimidin-2-yl)piperidine-1-carboxamide] | 146%
CC(C)N1CCN([C@H]2CCCC(F)(F)[C@@H]2NC(=O)N2CCC(c3ccc(C(F)(F)F)cn3)CC2)CC1 (racemic) [Example 55, rac-N-{(1R,6S)-2,2-difluoro-6-[4-(propan-2-yl)piperazin-1-yl]cyclohexyl}-4-[5-(trifluoromethyl)pyridin-2-yl]piperidine-1-carboxamide] | 95%
Cc1ccc(C2(C)CCN(C(=O)N[C@@H]3[C@@H](N4CCN(C(C)C)CC4)CCCC3(F)F)CC2)cc1 (racemic) [Example 58, rac-N-{(1R,6S)-2,2-difluoro-6-[4-(propan-2-yl)piperazin-1-yl]cyclohexyl}-4-methyl-4-(4-methylphenyl)piperidine-1-carboxamide] | 150%
CC(C)N1CCN([C@H]2CCCC(F)(F)[C@@H]2NC(=O)N2CCC(C)(c3ccc(C(F)F)cc3)CC2)CC1 (racemic) [Example 59, rac-4-[4-(difluoromethyl)phenyl]-N-{(1R,6S)-2,2-difluoro-6-[4-(propan-2-yl)piperazin-1-yl]cyclohexyl}-4-methylpiperidine-1-carboxamide] | 164%
Cc1ccc(C2CC=C(C(=O)N[C@@H]3[C@@H](N4CCN(C(C)C)CC4)CCCC3(F)F)CC2)cc1 (mixture of isomers) [Example 77, rac-N-{(1R,6S)-2,2-Difluoro-6-[4-(propan-2-yl)piperazin-1-yl]cyclohexyl}-4′-methyl-1,2,3,6-tetrahydro[1,1′-biphenyl]-4-carboxamide] | 158%
